For series [1] the following is noted: ABT-450 200 mg and 250 mg for 12 to 24 weeks; HCV-infected patients; cited from earlier work.
Series [2] can be described thus: Effect of a single dose of cyclosporine on DAA steady-state pharmacokinetics. It counts as in vivo, human (healthy volunteers). The settings on record: for change in pharmacokinetic parameters: by cyclosporine and tacrolimus, steady-state 3D regimen.
Series [3] is classed as in vivo, human (healthy volunteers).

A word on the AUC(0-inf): it is total exposure, with the tail of the curve extrapolated. A word on the Cmax: it is the highest concentration seen after dosing. For orientation: Tmax means the time from dosing to the highest level.

For `Cc1cnc(C(=O)N[C@H]2CCCCC/C=C\[C@@H]3C[C@@]3(C(=O)NS(=O)(=O)C3CC3)NC(=O)[C@@H]3C[C@@H](Oc4nc5ccccc5c5ccccc45)CN3C2=O)cn1` [ABT-450], in series [1], the safety and tolerability result is “safe and well tolerated”.
Take `COc1c(-c2ccc3cc(NS(C)(=O)=O)ccc3c2)cc(-n2ccc(=O)[nH]c2=O)cc1C(C)(C)CO` [Dasabuvir M1]: the “change in pharmacokinetic parameters” value in series [2] is recorded as no more than 34%.
With `COc1c(-c2ccc3cc(NS(C)(=O)=O)ccc3c2)cc(-n2ccc(=O)[nH]c2=O)cc1C(C)(C)C` [Dasabuvir, dasabuvir], in series [2], the “change in pharmacokinetic parameters” value is listed as no more than 34%.
Take `COC(=O)N[C@H](C(=O)N1CCC[C@H]1C(=O)Nc1ccc([C@@H]2CC[C@@H](c3ccc(NC(=O)[C@@H]4CCCN4C(=O)[C@@H](NC(=O)OC)C(C)C)cc3)N2c2ccc(C(C)(C)C)cc2)cc1)C(C)C` [Ombitasvir, ombitasvir]: the “change in steady-state exposures (Cmax and AUC)” value in series [2] (in the presence of cyclosporine or tacrolimus vs absence) is listed as no more than 15%.
In the case of `CC(C)c1nc(CN(C)C(=O)N[C@H](C(=O)N[C@@H](Cc2ccccc2)C[C@H](O)[C@H](Cc2ccccc2)NC(=O)OCc2cncs2)C(C)C)cs1` [Ritonavir, ritonavir], in series [2], the “change in pharmacokinetic parameters” value is recorded as no more than 34%.
Regarding `C=CC[C@@H]1/C=C(\C)C[C@H](C)C[C@H](OC)[C@H]2O[C@@](O)(C(=O)C(=O)N3CCCC[C@H]3C(=O)O[C@H](/C(C)=C/[C@@H]3CC[C@@H](O)[C@H](OC)C3)[C@H](C)[C@@H](O)CC1=O)[C@H](C)C[C@@H]2OC` [tacrolimus], in series [3] (human, whole blood, oral, 2 mg), the area under the curve AUC(0-inf) came out at 118 ng·h/mL, the highest level (Cmax) was 11 ng/mL, the time of peak concentration (Tmax) amounted to 1.8 h and the concentration at 12 h is 1.6 ng/mL. The concentration at 24 h in series [3] (human, whole blood, oral, 2 mg) was 1.1 ng/mL. In addition, the “delay in Tmax” value in series [3] (in the presence of the 3D regimen at steady state vs tacrolimus alone) is 3.2 h. Also, the “dose-normalized C24 with 3D relative to dose-normalized C12 alone” value in series [3] (tacrolimus with steady-state 3D regimen vs tacrolimus alone) amounted to 11 fold.

Source of the values: publication PMC5024008 (American Journal of Transplantation, 2015).
